From US20090105171A1, “Methods for Regenerating and Repairing Damaged Tissues Using Adrenomedullin” (priority 2005, published 2009)

Assays:
[1] = system: elastase-induced pulmonary emphysema; experiment: Morphological and functional analyses of elastase-treated mice administered with AM; assay type: in vivo, C57BL/6 mice; conditions: day 28
Protocol: The remaining 42 mice were used to examine whether AM improves lung structure and lung function in elastase-induced pulmonary emphysema. The mice were intratracheally injected with swine pancreatic elastase (200 units/kg) or physiological saline at random, and assigned to continuous infusion of either AM or physiological saline. Based on this protocol, the following three groups were prepared: the sham treated mice administrated with physiological saline (the sham treated group, n=14), elastase-treated mice administered with physiological saline (the physiological saline group, n=14), and elastase-treated mice administrated with AM (the AM group, n=14). Each of the above-mentioned Examples was carried out according to the guidelines of Animal Management Ethics Committee of the National Cardiovascular Center (Osaka, Japan).
In fact, in the present invention, findings about lung functions (increase in lung volume and static lung compliance) and morphological findings (increase in the average alveolar diameter) confirmed that emphysematous changes were induced in the lungs by intratracheal injection of elastase, and these findings are consistent with the results from previous studies (Hayes J A, Korthy A, Snider G L. The pathology of elastase-induced panacinar emphysema in hamsters. J Pathol 1975; 117: 1-14; Kuraki T, Ishibashi M, Takayama M, Shiraishi M, Yoshida M. A novel oral neutrophil elastase inhibitor (ONO-6818) inhibits human neutrophil elastase-induced emphysema in rats. Am J Respir Crit Care Med 2002; 166: 496-500). 28 days after the injection of elastase or physiological saline, the mice were anesthetized and their static lung compliance was measured using a computer-controlled small animal ventilator (FlexiVent; Scireq, Montreal, PQ, Canada) (n=7). Lungs were excised and then fixed for 24 hours, while the transpulmonary pressure was maintained at 25 cm H2O (n=7). The lung volume was measured by Scherle's method (Scherle W. A simple method for volumetry of organs in quantitative stereology. Mikroskopie 1970; 26: 57-60). The mean linear intercept, a morphometric parameter of pulmonary emphysema, was calculated for 20 randomly selected regions with a light microscope using a method known to those skilled in the art (Thurlbeck W M. Internal surface area and other measurements in emphysema. Thorax 1967; 22: 483-496). Morphological examination was conducted in a blind manner by three observers.
Further, paraffin sections were obtained from the lungs (n=7), and the tissue sections were stained for vWF to examine whether AM induced angiogenesis in the elastase-administered lungs. Three observers counted the number of vWF-positive blood vessels per mm^2 in a blind test manner.

[2] = system: bone marrow-derived cells in the elastase-administered lungs; experiment: Homing and differentiation of bone marrow cells in elastase-treated GFP-positive bone marrow chimeric mice; assay type: in vivo, C57BL/6 mice; conditions: AM group vs physiological saline group, day 28 after elastase injection
Excerpt: C57BL/6GFP-positive bone marrow chimeric mice were established for evaluating the dynamics of bone marrow cells.
The above-mentioned bone marrow chimeric mice were produced by a method known to those skilled in the art (Sata M, Saiura A, Kunisato A, Tojo A, Okada S, Tokuhisa T, Hirai H, Makuuchi M, Hirata Y, Nagai R. Hematopoietic stem cells differentiate into vascular cells that participate in the pathogenesis of atherosclerosis. Nat Med 2002; 8: 403-409). To put it briefly, a lethal dose of radiation (900 cGy) was applied to wild-type recipient C57BL/6 mice, and bone marrow cells (3×10^6 cells/300 μl) derived from the GFP mouse were transplanted through the tail vein. In order to quantify the reconstitution of mouse bone marrow, mononuclear cells and bone marrow cells in the peripheral blood were analyzed by flow cytometry four weeks after the bone marrow transplant. The percentages of the GFP-positive peripheral blood mononuclear cells and bone marrow cells in the chimeric mice were 87% to 93% and 85% to 90%, respectively, showing that the original stem cell group was replaced by the donor cell group.
Four weeks after the bone marrow transplant, swine pancreatic elastase (200 units/kg; Sigma, St. Louis, Mo.) was injected intratracheally to the chimeric mice. These mice were divided into two groups: the elastase-treated mice to be administered with physiological saline, and those to be administered with AM (each, n=5).
28 days after the injection of elastase (n=5) or saline solution (n=5), frozen sections were prepared from the lungs of the GFP-positive chimeric mice. The number of GFP-positive cells in the alveolar wall was counted and the result was indicated as the number per 100 alveoli. […] The numbers of GFP/cytokeratin double-positive cells and GFP/vWF double-positive cells were counted, and the results were indicated as the number per 100 alveoli. […]

[3] = system: bone marrow-derived cells in ischemic cardiac muscle; experiment: Dynamic analysis of bone marrow-derived cells in a rat model of myocardial infarction; assay type: in vivo, GFP chimeric rats; conditions: acute myocardial infarction, AM 0.05 μg/kg/min subcutaneously for seven days vs control group
Protocol: Acute myocardial infarction was produced in GFP chimeric rats (rats expressing GFP in the bone marrow cells) by thoracotomy and then ligation of the anterior descending coronary artery (Fujii T. et al., Am J Physiol Heart Circ Physiol. 288(3): H1444-50, 2005).
After local ischemia is created in the heart by ligation, 0.05 μg/kg/min of AM (the AM group) or 0.9% physiological saline (the control group) was subcutaneously administered for seven days via an osmotic pressure pump.
After acute myocardial infarction was produced, the distributions of bone marrow-derived cells (confirmed by GFP expression), vascular endothelial cells (confirmed by vWF, an endothelial cell marker), and cardiac muscle cells (confirmed by desmin, a cardiac muscle cell marker) in the myocardial infarct area were confirmed. Further, the total sum of the GFP-expressing cell number, vWF-expressing cell number, and desmin-expressing cell number was examined to confirm the states of regeneration of blood vessel and cardiac muscle in the AM group and control group.

[4] = system: peripheral blood mononuclear cells; experiment: Dynamics of bone marrow cells after AM administration: peripheral blood mononuclear cells and Sca-1-positive cells; assay type: in vivo, C57BL/6 mice
Protocol: First, to investigate whether AM has an effect on the dynamics of bone marrow cells, AM or physiological saline was administered randomly to model animals. As the model animals, 48 ten-week old female C57BL/6 mice were used. The transgenic mice (C57BL/6 background) which ubiquitously express green fluorescence protein (GFP) were kindly offered by Professor Masaru Okabe (Osaka University, Japan) (Okabe M, Ikawa M, Kominami K, Nakanishi T, Nishimune Y. ‘Green mice’ as a source of ubiquitous green cells. FEBS Lett 1997; 407: 313-319).
AM (1 μg, 2 μg, or 5 μg in 100 μl physiological saline) was randomly administrated to the C57BL/6 mice (each, n=8) by intraperitoneal injection every day for five days. The control mice were similarly administered with 100 μl physiological saline every day for five days (n=8).
Furthermore, AM or physiological saline was administered to other mice (each, n=8) with a subcutaneous osmotic mini-pump (Alzet, Palo Alto, Calif.) at a delivery rate of 0.05 μg/kg/min for five days. Blood samples were collected on day 5, and mononuclear cells were isolated using Histopaque-1083 (Sigma) by a method known to those skilled in the art (Asahara T, Takahashi T, Masuda H, Kalka C, Chen D, Iwaguro H, Inai Y, Silver M, Isner J M. VEGF contributes to postnatal neovascularization by mobilizing bone marrow-derived endothelial progenitor cells. EMBO J 1999; 18: 3964-3972). The mononuclear cells were counted manually and analyzed with respect to the expression of Sca1-FITC (Sca-1-positive cells: BD Pharmingen, San Diego, Calif.). The immunofluorescence-labeled cells were analyzed by a quantitative flow cytometry using the FACSCalibur Flow Cytometer (BD Biosciences, Mountain View, Calif.). An antibody with the same isotype (BD Pharmingen) was used as a control.

[5] = elastase-treated mice, continuous AM infusion

## adrenomedullin [AM]
[1]; elastase-administered lungs, AM vs physiological saline group
  number of vWF-positive lung blood vessels: significantly increased
[1]; elastase-injected mice, continuous AM infusion
  histological changes (air space enlargement accompanied by destruction of the alveolar wall): decreased
[1]; [5]
  average alveolar diameter (mean linear intercept): increase over the sham treated group: reduced
  increase in static lung compliance: significantly reduced
  magnitude of the increase in lung volume: reduced
[2]
  number of GFP-positive cells incorporated in the lung (alveolar wall, per 100 alveoli): significantly larger
  number of GFP/cytokeratin double-positive cells (per 100 alveoli): significantly larger
  number of GFP/vWF double-positive cells in the alveolar wall: larger
[3]
  regeneration of cardiac muscles by bone marrow-derived cells (GFP- and desmin-expressing cells): significantly enhance
  revascularization by bone marrow cells (GFP- and vWF-expressing cells): significantly increase
[4]; AM 1 μg/animal, intraperitoneal injection every day for five days, day 5
  number of the peripheral blood mononuclear cells: 120 % of the physiological saline group
[4]; AM 5 μg/animal, intraperitoneal injection every day for five days, day 5
  number of the peripheral blood mononuclear cells: 140 % of the physiological saline group
[4]; AM 1, 2 or 5 μg intraperitoneal every day for five days, day 5
  number of the peripheral blood mononuclear cells (dose dependence): increased in a dose-dependent manner
[4]; continuous AM, subcutaneous osmotic mini-pump 0.05 μg/kg/min for five days, day 5
  number of the peripheral blood mononuclear cells: 131 % of the physiological saline group
[4]; continuous AM, subcutaneous osmotic mini-pump 0.05 μg/kg/min for five days, day 5, flow cytometry
  frequency of Sca-1-positive cells: 200 % of the physiological saline group
